Results on one compound are retold here after PMC8824275, “Gastrointestinal Stability and Cytotoxicity of Bacteriocins From Gram-Positive and Gram-Negative Bacteria: A Comparative in vitro Study” (Frontiers in Microbiology, 2022).

In brackets after ≈: the same amount, converted by molar mass. Read-outs that look alike come from different tables or passages of the source.

The subject of one series is rat erythrocytes. Put plainly: Hemolytic activity. Format: cell-based. As to conditions: 45 min, 37°C. As to the method: The experiment was performed after prior approval from the local ethics committee by TransBIOTech laboratory. Hemolytic potential of bacteriocins was evaluated according to [FDA (2005)]. Rat blood was collected into a heparinized tube and added in a 1:1 volume (100 μL) to serially diluted compounds (in 100 μL PBS), in a conical 96-well plate. 10% Triton X-100 and PBS were used as a positive and negative controls, respectively. The plates were sealed and incubated for 45 min at 37°C prior to centrifugation at 2,000 g for 10 min to pellet red blood cells. The supernatant was then transferred into clear 96-well plates and the absorbance was read at 540 nm (hemoglobin). The percentage of hemolysis was calculated as follow, with RBC standing for red blood cells:
%Hemolysis=AbsorbanceofRBCtreatedwithbacteriocins-AbsorbanceofRBCtreatedwithPBS/AbsorbanceofRBCtreatedwithTritonX100-AbsorbanceofRBCtreatedwithPBS

The subject of the next series is L. ivanovii HPB 28. Format: cell-based, Listeria ivanovii. As to conditions: for Total activity: broth microdilution. The source says:
Microcin J25 was produced by Escherichia coli MC4100 carrying the plasmid PTUC 202 ([Solbiati et al., 1999]). For the antibacterial activity of pure compounds and digestion mixture, Listeria ivanovii HPB28 (Canada Health Protection Branch) was used as indicator strain for nisin and pediocin PA-1, while Staphylococcus aureus ATCC 6538 (ATCC) and Salmonella enterica subsp. enterica serovar Newport ATCC 6962 (later referred to as S. Newport, ATCC) were used as indicator strains for bactofencin A (M14L, M18L) and microcin J25, respectively. L. ivanovii HPB28 and S. aureus were cultured in Tryptic Soy (Difco Laboratories, Spark, MD, United States) supplemented with 0.6% yeast extract (TSBYE), at 30 and 37°C, respectively. S. Newport was cultured at 37°C overnight in Luria-Bertani (LB) (Difco Laboratories, Spark, MD, United States). All strains were maintained at –80°C as stock cultures in their corresponding culture media supplemented with 20% glycerol, and propagated twice at 24 h intervals before use.
Quantitative determination of inhibitory activity of bacteriocins was carried out using the broth microdilution method as described by [Ben Said et al. (2020)]. Two-fold serial dilutions of bacteriocins (125 μL) were prepared in an appropriate medium in a clear 96-well flat-bottom microtiter plate. Indicator strains were diluted to 10^5 CFU/mL, from which 50 μL were added to each well. The microtiter plates were incubated for 24 h under appropriate conditions, and optical densities were recorded at 595 nm (Infinite M200, Tecan, Switzerland). Control wells contained untreated culture and appropriate medium (blanks). The number of inhibition wells was noted and inhibition activities were calculated in μg/mL.
In general terms: Broth dilution looks for growth in wells or tubes with falling amounts of substance.

A further series deals with Caco-2 cells. Put plainly: LDH release assay (membrane integrity). As to conditions: Caco-2, CytoTox-ONE LDH release, 0.4 to 400 μg/mL, 24 h (method: 48 h), 37°C, mean of three experiments. Format: cell-based, human. As to the method:
The human colonic adenocarcinoma (Caco-2) cells were purchased from ATCC. Cells were cultured in DMEM medium in a humidified atmosphere containing 5% CO2 at 37°C. For the LDH release assay, cells were seeded in 96 well flat bottom culture plates (1 × 10^4 cells/well). Caco-2 cells, which have been frequently used for permeability studies across the intestinal epithelium, were selected in this study for evaluating the cytotoxicity of bacteriocins and their interaction with intestinal epithelium during GI transit to determine their cytotoxicity.
The CytoTox-ONE™ cytotoxicity assay kit (Promega, United States) was used to measure the LDH release. […] Lysis solution (Promega) was added in a 1:1 ratio to selected control wells to induce the maximal release of LDH and the plate was incubated for 5 min. […] Finally, stop solution was then added to each well, and absorbance was measured using a spectrophotometer (Tecan Spark 20M, Morrisville, NC, United States) at excitation/emission wavelengths of 560/590 nm. Each compound-treated value was blanked with the values of the control-treated cells and cytotoxicity was expressed as percentage of the maximal LDH release (lysis solution treated cells), calculated by the following formula: […]
In general terms: Release of lactate dehydrogenase indicates damage to the cell membrane.

Turning to `C=C(NC(=O)[C@@H](NC(=O)[C@H](Cc1c[nH]cn1)NC(=O)[C@@H](NC(=O)[C@H](CO)NC(=O)[C@@H]1CS[C@@H](C)[C@H]2NC(=O)[C@H](C)NC(=O)[C@H](NC(=O)[C@H](CCCCN)NC(=O)[C@H](CCSC)NC(=O)[C@H](CC(N)=O)NC(=O)[C@@H]3CS[C@@H](C)[C@@H](NC(=O)[C@H](CCCCN)NC(=O)[C@@H]4CS[C@@H](C)[C@@H](NC(=O)[C@@H]5CSC[C@@H](NC(=O)/C(=C/C)NC(=O)[C@@H](N)[C@@H](C)CC)C(=O)N[C@@H]([C@@H](C)CC)C(=O)NC(=C)C(=O)N[C@@H](CC(C)C)C(=O)N5)C(=O)N5CCC[C@H]5C(=O)NCC(=O)N4)C(=O)NCC(=O)N[C@@H](C)C(=O)N[C@@H](CC(C)C)C(=O)N[C@@H](CCSC)C(=O)NCC(=O)N3)[C@H](C)SC[C@H](NC2=O)C(=O)N[C@@H](CC(N)=O)C(=O)N1)[C@@H](C)CC)C(C)C)C(=O)N[C@@H](CCCCN)C(=O)O` [nisin Z], the “Concentration above which dose-dependent increase in percentage of hemolysis was shown” value in the series with rat erythrocytes (0.4 to 400 μg/mL) was “higher than 50 μg/mL”. Moreover, in the series with rat erythrocytes (at concentrations close to 400 μg/mL), the Hemolysis entry is recorded as “approximately 100%”. The Total activity with L. ivanovii HPB 28 (after gastric conditions (SGF, pepsin 2000 U/mL, lipase 60 U/mL, pH 3, 90 min, 37°C)) is 3.12 AU/mL; in the series on L. ivanovii HPB 28 (after oral conditions (SSF, 2 min, 37°C)) it was 3.12 AU/mL; in the series with L. ivanovii HPB 28 (after small intestinal conditions (SIF, bile salt 10 mmol/L, pancreatin 100 U/mL, pH 7, 2 h, 37°C)), 200 AU/mL; in the series on L. ivanovii HPB 28 (pure compound without GI digestion, 24 h, OD 595 nm) it was 3.12 AU/mL. In addition, the MIC in the series on L. ivanovii HPB 28 (against L. ivanovii) was 1.65 µg/mL (≈ 0.495 µM). For the same compound, the “Membrane integrity (LDH release)” value in the series on Caco-2 cells is on record as “uncompromised”.

A word on the MIC: it is the lowest concentration that inhibits growth of the organism.
